Structures are written as SMILES.

The values that follow come from US11311520B2, “Substituted dihydroimidazopyridinediones as MKNK1 and MKNK2 inhibitors” (Bayer Pharma Aktiengesellschaft, priority 2017, dated 2022).

The assay concerns the target human full-length MKNK1 (Homo sapiens (Human), UniProt Q9BUB5, T344D). As to the kind of experiment: MKNK1 kinase high ATP assay (TR-FRET). The settings on record: 2 mM ATP, 15 min preincubation with enzyme, GST-MKNK1 (T344D). It counts as biochemical. The method in brief: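 GST-tagged full-length human MKNK1 (1-424, T344D, baculovirus-expressed) preincubated 15 min at 22 °C with compound, then reacted 30 min at 22 °C with 2 mM ATP and 0.06 μM biotinylated peptide (final) in HEPES pH 7.5. Phospho-substrate by TR-FRET (665/622 nm ratio), normalised to no-inhibitor and no-enzyme controls.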
Background: Time-resolved FRET reads energy transfer from a long-lived donor to a nearby acceptor.

human full-length MKNK1, sequence (Q9BUB5 other isoform, or with tags, fused parts or gaps T344D): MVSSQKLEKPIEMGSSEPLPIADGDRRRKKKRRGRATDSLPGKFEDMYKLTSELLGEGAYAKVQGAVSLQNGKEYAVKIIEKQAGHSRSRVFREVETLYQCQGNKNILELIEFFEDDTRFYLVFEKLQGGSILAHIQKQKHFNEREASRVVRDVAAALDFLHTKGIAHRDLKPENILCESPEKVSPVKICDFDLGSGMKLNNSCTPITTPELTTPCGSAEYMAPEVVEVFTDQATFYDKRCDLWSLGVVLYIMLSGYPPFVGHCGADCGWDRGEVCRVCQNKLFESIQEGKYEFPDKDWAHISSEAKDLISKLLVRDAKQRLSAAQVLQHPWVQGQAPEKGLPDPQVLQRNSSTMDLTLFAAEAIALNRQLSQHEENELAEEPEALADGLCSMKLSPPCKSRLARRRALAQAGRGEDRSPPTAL

`Cc1cc(Nc2ncnc3sc(C(=O)N4CC(N)C4)cc23)c(=O)n2c1C(=O)NC21CCC(F)(F)CC1` [Example 84, 6′-({6-[(3-Aminoazetidin-1-yl)carbonyl]thieno[2,3-d]pyrimidin-4-yl}amino)-4,4-difluoro-8′-methyl-2′H-spiro[cyclohexane-1,3′-imidazo[1,5-a]pyridine]-1′,5′-dione] yielded an IC50 of 10.8 nM. The figure for `Cc1cc(Nc2ncnc(NC(=O)C3CC3)n2)c(=O)n2c1C(=O)NC21CCCC1` [Example 53, N-{4-[(8′-Methyl-1′,5′-dioxo-1′,5′-dihydro-2′H-spiro[cyclopentane-1,3′-imidazo[1,5-a]pyridin]-6′-yl)amino]-1,3,5-triazin-2-yl}cyclopropanecarboxamide] is 2.4 nM; for `Cc1cc(Nc2ncnc3c2CN(C(=O)OC(C)(C)C)C3)c(=O)n2c1C(=O)NC21CCC(F)(F)CC1` [Example 104, tert-Butyl 4-[(4,4-difluoro-8′-methyl-1′,5′-dioxo-1′,5′-dihydro-2′H-spiro[cyclohexane-1,3′-imidazo[1,5-a]pyridin]-6′-yl)amino]-5,7-dihydro-6H-pyrrolo[3,4-d]pyrimidine-6-carboxylate] it is 30.2 nM.

In turn, `Cc1cc(Nc2ncnc3sc(C(N)=O)c(C)c23)c(=O)n2c1C(=O)NC21CCCC1` [Example 107, 5-Methyl-4-[(8′-methyl-1′,5′-dioxo-1′,5′-dihydro-2′H-spiro[cyclopentane-1,3′-imidazo[1,5-a]pyridin]-6′-yl)amino]thieno[2,3-d]pyrimidine-6-carboxamide] registered an IC50 of 111 nM.

Compound `Cc1cc(Nc2ncnc(N)n2)c(=O)n2c1C(=O)NC21CCCCC1` [Example 2, 6′-[(4-Amino-1,3,5-triazin-2-yl)amino]-8′-methyl-2′H-spiro[cyclohexane-1,3′-imidazo[1,5-a]pyridine]-1′,5′-dione] returned a half-maximal inhibitory concentration (IC50) of 6.4 nM. The figure for `Cc1cc(Nc2ncnc3sc(C(=O)NCCN(C)C)cc23)c(=O)n2c1C(=O)NC21CCCC1` [Example 59, N-[2-(Dimethylamino)ethyl]-4-[(8′-methyl-1′,5′-dioxo-1′,5′-dihydro-2′H-spiro[cyclopentane-1,3′-imidazo[1,5-a]pyridin]-6′-yl)amino]thieno[2,3-d]pyrimidine-6-carboxamide] is 2.7 nM; for `Cc1cc(Nc2ncnc3cccc(C)c23)c(=O)n2c1C(=O)NC21CCCCC1` [Example 123, 8′-Methyl-6′-[(5-methylquinazolin-4-yl)amino]-2′H-spiro[cyclohexane-1,3′-imidazo[1,5-a]pyridine]-1′,5′-dione] it is 9.7 nM; for `Cc1cc(Nc2ncnc3scnc23)c(=O)n2c1C(=O)NC21CSC1` [Example 173, 8-methyl-6-[([1,3]thiazolo[5,4-d]pyrimidin-7-yl)amino]-2H-spiro[imidazo[1,5-a]pyridine-3,3′-thietane]-1,5-dione] it is 5.8 nM. The figure for `Cc1cc(Nc2ncnc3nc(CC(F)(F)F)[nH]c23)c(=O)n2c1C(=O)NC21CCCCC1` [Example 37, 8′-Methyl-6′-{[8-(2,2,2-trifluoroethyl)-7H-purin-6-yl]amino}-2′H-spiro[cyclohexane-1,3′-imidazo[1,5-a]pyridine]-1′,5′-dione] is 10.3 nM. In turn, `Cc1cc(Nc2ncnc3sc(C(=O)N(C)CCN(C)C)cc23)c(=O)n2c1C(=O)NC21CCC1` [Example 152, N-[2-(Dimethylamino)ethyl]-N-methyl-4-[(8′-methyl-1′,5′-dioxo-1′,5′-dihydro-2′H-spiro[cyclobutane-1,3′-imidazo[1,5-a]pyridin]-6′-yl)amino]thieno[2,3-d]pyrimidine-6-carboxamide] yielded an IC50 of 7.4 nM. The figure for `Cc1cc(Nc2ncnc3[nH]cnc23)c(=O)n2c1C(=O)NC21CCC(F)(F)CC1` [Example 106, 4,4-Difluoro-8′-methyl-6′-(9H-purin-6-ylamino)-2′H-spiro[cyclohexane-1,3′-imidazo[1,5-a]pyridine]-1′,5′-dione] is 3.5 nM; for `Cc1cc(Nc2ncnc3c2ncn3CC(=O)N(C)CCN(C)C)c(=O)n2c1C(=O)NC21CCCCC1` [Example 50] it is 950 nM.

One may read the IC50 as the midpoint of a concentration-inhibition curve. A higher IC50 goes with lower potency.
